Assay [1] concerns DNB aptamer (RNA, aptamer) GGUGCCUUAUUCCGGACGCCGGGCCCGAAUGCUGCUACGGCAGUCGAAGACAACAUCGCGCCCUUCGGAGGCACC
The assay is described as follows: fluorescence increase titration. As to conditions: 125 mM KCl, 5 mM MgCl2; 20 mM Hepes pH 7.4, 25°C; probe 100 nM.

For assay [2], the system named is wt-DNB aptamer (RNA, aptamer) GGAGCUCAGCCUUCACUGCCUUAUUCCGGACGCCGGGCCCGAAUGCUGCUACGGCAGUCGAAGACAACAUCGCGCCCUUCGGAGGCACCACGGUCGGAUCCAC
The assay is described as follows: fluorescence increase titration. As to conditions: 125 mM KCl, 5 mM MgCl2; 20 mM Hepes pH 7.4, 25°C; probe 100 nM.

Assay [3] has as its system clone 5 (RNA, aptamer) GGAGCUCAGCCUUCACUGCGGUUGCCCUCCGUGCUUCAUGCUUCCCUGCUUCGGCAGUCGCGGUAAACCGUAGAGAAAGUUGAGGCACCACGGUCGGAUCCAC
The assay is described as follows: fluorescence increase titration. The settings on record: 125 mM KCl, 5 mM MgCl2; 20 mM Hepes pH 7.4, 25°C; probe 1 µM.

Assay [4] has as its system DNB aptamer (RNA, aptamer) GGUGCCUUAUUCCGGACGCCGGGCCCGAAUGCUGCUACGGCAGUCGAAGACAACAUCGCGCCCUUCGGAGGCACC
The assay is described as follows: fluorescence competition. As to conditions: 125 mM KCl, 5 mM MgCl2; 20 mM Hepes pH 7.4; displaces SR-DN (1 μM) from DNB (100 nM); calculated from IC50.

As a reminder, the KD is the concentration at which binding is half-saturated.

`CCN(CC)c1ccc2c(-c3ccc(S(=O)(=O)NCCOCCOCCNc4ccc([N+](=O)[O-])cc4[N+](=O)[O-])cc3S(=O)(=O)[O-])c3ccc(=[N+](CC)CC)cc-3oc2c1`: the KD came to 0.80 ± 0.10 µM in assay [1], 1.44 ± 0.08 µM in assay [2] and 20.1 ± 3.9 µM in assay [3].
Take `CN(C)c1ccc2c(-c3ccc(C(=O)NCCOCCOCCNc4ccc([N+](=O)[O-])cc4[N+](=O)[O-])cc3C(=O)[O-])c3ccc(=[N+](C)C)cc-3oc2c1`: the figures for the equilibrium dissociation constant (KD) in assay [1] and in assay [3] were 0.35 ± 0.05 µM and 7.77 ± 0.9 µM, respectively.
Regarding `N=c1ccc2c(-c3ccc(C(=O)NCCOCCOCCNc4ccc([N+](=O)[O-])cc4[N+](=O)[O-])cc3C(=O)O)c3ccc(N)cc3oc-2c1`, in assay [1], the KD worked out at 4.48 ± 0.60 µM.
Take `NCCOCCOCCNc1ccc([N+](=O)[O-])cc1[N+](=O)[O-]`: the KD in assay [4] is 0.1 ± 0.014 µM.
Take `O=C(NCCOCCOCCNc1ccc([N+](=O)[O-])cc1[N+](=O)[O-])c1ccc(-c2c3ccc(=O)cc-3oc3cc(O)ccc23)c(C(=O)O)c1`: the KD in assay [1] is 8.55 ± 0.53 µM; in assay [3], 27.2 ± 3.2 µM.
Taken in the same sequence, the figures for `O=[N+]([O-])c1ccc(NCCOCCOCCNS(=O)(=O)c2ccc(C3=c4cc5c6c(c4Oc4c3cc3c7c4CCCN7CCC3)CCC[N+]=6CCC5)c(S(=O)(=O)[O-])c2)c([N+](=O)[O-])c1` were 18.0 ± 1.8 µM and 52.6 ± 17.8 µM.

Values taken from article PMC4666381 (2015).
